Molecular target: C-C chemokine receptor type 5 (Homo sapiens, UniProt P51681)
Experiment: Calcium Flux Inhibition Experiment: 1. HEK293 cells which can stably express CCR5 were inoculated in a 96-well plate and incubated overnight.2. The medium in each well into which cells were innoculated was removed and 40 μl/well of freshly prepared dye was added. The plate was placed in a 37° C. incubator and incubated for 40 minutes at constant temperature.3. The medicament to be determined was diluted with calcium buffer to eight concentration gradients, which is 1×10−4 M, 1×10−5 M, 1×10−6 M, 1×10−7 M, 1×10−8 M, 1×10−9 M, 1×10−10 M, and 1×10−11 M, respectively, and homogeneously mixed.4. The dye was removed. Freshly prepared calcium buffer was used to wash for one time, 50 μl of calcium buffer was added.5. FlexStation II was used for detection. 25 μl of calcium buffer containing the medicament to be determined was added automatically from the 15th second. The fluorescence value at 525 nm was read ultimately.
Format: cell-based

Sequence of C-C chemokine receptor type 5 (P51681 whole entry): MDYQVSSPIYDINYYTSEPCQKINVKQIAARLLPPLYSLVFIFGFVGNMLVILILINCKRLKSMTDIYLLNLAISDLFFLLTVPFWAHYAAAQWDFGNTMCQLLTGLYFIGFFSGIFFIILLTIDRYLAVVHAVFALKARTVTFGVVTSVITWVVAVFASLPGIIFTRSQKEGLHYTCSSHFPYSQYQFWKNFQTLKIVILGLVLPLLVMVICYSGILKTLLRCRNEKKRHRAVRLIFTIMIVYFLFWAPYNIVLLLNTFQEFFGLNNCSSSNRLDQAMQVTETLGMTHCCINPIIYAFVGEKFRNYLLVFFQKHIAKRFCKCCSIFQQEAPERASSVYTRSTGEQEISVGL

SMILES | IC50 [nM]
Cc1nnc(C(C)C)n1C1CC2CCC(C1)N2CC[C@H](NC(=O)C1CCC(F)(F)CC1)c1nccs1 (stereo partly drawn) | 10.3
CC(=O)Nc1ccc([C@H](CCN2C3CCC2CC(n2c(C)nnc2C(C)C)C3)NC(=O)C2CCC(F)(F)CC2)s1 (stereo partly drawn) | 8.23
CCc1ccc([C@H](CCN2C3CCC2CC(n2c(C)nnc2C(C)C)C3)NC(=O)C2CCC(F)(F)CC2)s1 (stereo partly drawn) | 4.63
Cc1nnc(C(C)C)n1C1CC2CCC(C1)N2CC[C@H](NC(=O)C1CCC(F)(F)CC1)c1csc2ccccc12 (stereo partly drawn) | 11.4
Cc1nnc(C(C)C)n1C1CC2CCC(C1)N2CC[C@H](NC(=O)C1CCC(F)(F)CC1)c1ccc(C#N)s1 (stereo partly drawn) | 9.45
Cc1nnc(C(C)C)n1C1CC2CCC(C1)N2CC[C@H](NC(=O)C1CCC(F)(F)CC1)c1ccc(Cl)s1 (stereo partly drawn) | 10.4
Cc1nnc(C(C)C)n1C1CC2CCC(C1)N2CCC(NC(=O)C1CCC(F)(F)CC1)c1cccs1 (stereo not drawn) | 1.95
Cc1ccc([C@H](CCN2C3CCC2CC(n2c(C)nnc2C(C)C)C3)NC(=O)C2CCC(F)(F)CC2)s1 (stereo partly drawn) | 7.28
Cc1ccc([C@H](CCN2C3CCC2CC(n2c(C)nnc2C(C)C)C3)NC(=O)CC#N)s1 (stereo partly drawn) | 8.29
Cc1nnc(C(C)C)n1C1CC2CCC(C1)N2CC[C@H](NC(=O)C1CCCCC1)c1ccc(C(=O)N(C)C)s1 (stereo partly drawn) | 1.64
Cc1nnc(C(C)C)n1C1CC2CCC(C1)N2CC[C@H](NC(=O)C1CCC(F)(F)CC1)c1ccc(F)s1 (stereo partly drawn) | 9.33
CNC(=O)c1ccc([C@H](CCN2C3CCC2CC(n2c(C)nnc2C(C)C)C3)NC(=O)C2CCC(F)(F)CC2)s1 (stereo partly drawn) | 13.7
CC(=O)Oc1ccc([C@H](CCN2C3CCC2CC(n2c(C)nnc2C(C)C)C3)NC(=O)C2CCCCC2)s1 (stereo partly drawn) | 1.38

Source: ChEMBL document CHEMBL5726069, “1-(3-aminopropyl) substituted cyclic amine compounds, preparation method therefor, and pharmaceutical compositions and uses thereof” (2019)
